In the supplement of paper PMC5908809:

How the values were obtained:
IMC-1 (IL-2 20 ng/mL) [1] = test: percent inhibition of viability; higher = more inhibition; details: 72 h
[2] = tested on: normal primary NK cells, pool 3 (3 donors) (IL-2 2.5 ng/mL); test: as above; details: 72 h
[3] = tested on: normal primary NK cells, pool 1 (3 donors) (IL-2 2.5 ng/mL); test: as above; details: 72 h
KHYG-1 (IL-2 2.5 ng/mL) [4] = test: as above; details: 72 h
NK-YS (IL-2 2.5 ng/mL) [5] = test: as above; details: 72 h
[6] = tested on: normal primary NK cells, pool 1 (3 donors), resting (IL-2 0 ng/mL); test: as above; details: 72 h
YT (IL-2 2.5 ng/mL) [7] = test: as above; details: 72 h
NKL (IL-2 2.5 ng/mL) [8] = test: as above; details: 72 h
NK-92 (IL-2 2.5 ng/mL) [9] = test: as above; details: 72 h
SNK-6 (IL-2 2.5 ng/mL) [10] = test: as above; details: 72 h
DERL-7 (IL-2 2.5 ng/mL) [11] = test: as above; details: 72 h
[12] = tested on: normal primary NK cells, pool 2 (3 donors) (IL-2 2.5 ng/mL); test: as above; details: 72 h
KAI3 (IL-2 2.5 ng/mL) [13] = test: as above; details: 72 h
[14] = tested on: normal NK cells expanded with K562-aAPC; test: as above; details: 72 h, IL-2 2.5 ng/mL
Description: (§1)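 Drug sensitivity and resistance testing on K562-aAPC-expanded normal NK cells: 5 concentrations (10-fold steps over a 10,000-fold range), 72 h at 37 °C, viability by CellTiter-Glo normalised to DMSO and benzethonium chloride controls; DSS from the fitted curve.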

[15] = tested on: normal NK cells expanded with K562-aAPC; test: drug sensitivity score (DSS) (DSS units); higher = more sensitive; extreme values may be limits of the assay; details: 72 h; IL-2 2.5 ng/mL
Description: as §1

IMC-1 (IL-2 20 ng/mL) [16] = test: as above; details: 72 h
[17] = tested on: normal primary NK cells, pool 3 (3 donors) (IL-2 2.5 ng/mL); test: as above; details: 72 h
[18] = tested on: normal primary NK cells, pool 1 (3 donors) (IL-2 2.5 ng/mL); test: as above; details: 72 h
KHYG-1 (IL-2 2.5 ng/mL) [19] = test: as above; details: 72 h
NK-YS (IL-2 2.5 ng/mL) [20] = test: as above; details: 72 h
[21] = tested on: normal primary NK cells, pool 1 (3 donors), resting (IL-2 0 ng/mL); test: as above; details: 72 h
YT (IL-2 2.5 ng/mL) [22] = test: as above; details: 72 h
NKL (IL-2 2.5 ng/mL) [23] = test: as above; details: 72 h
NK-92 (IL-2 2.5 ng/mL) [24] = test: as above; details: 72 h
SNK-6 (IL-2 2.5 ng/mL) [25] = test: as above; details: 72 h
DERL-7 (IL-2 2.5 ng/mL) [26] = test: as above; details: 72 h
[27] = tested on: normal primary NK cells, pool 2 (3 donors) (IL-2 2.5 ng/mL); test: as above; details: 72 h
KAI3 (IL-2 2.5 ng/mL) [28] = test: as above; details: 72 h

Cn1cc(C2=Nc3cc(NC(=O)C(N)C4CCCCC4)cc4c3C2=CNNC4=O)cn1 (centres undefined) (max concentration tested 10000 nM)
percent inhibition of viability [%]
Details	1 nM	10 nM	100 nM	1000 nM	10000 nM
DERL-7 (IL-2 2.5 ng/mL) [11]	-5.54	-1.5	4.6	48.3	97.6
IMC-1 (IL-2 20 ng/mL) [1]	-2.84	-1.7	7.25	99.8	101
KAI3 (IL-2 2.5 ng/mL) [13]	-1.93	-2.44	21.2	93	103
KHYG-1 (IL-2 2.5 ng/mL) [4]	18.4	5.75	32.3	104	107
NK-92 (IL-2 2.5 ng/mL) [9]	3.17	-3.7	17.4	65.2	107
NK-YS (IL-2 2.5 ng/mL) [5]	-0.41	0.42	9.21	75.4	97.2
NKL (IL-2 2.5 ng/mL) [8]	-1.81	2.84	-0.69	61.7	82.7
SNK-6 (IL-2 2.5 ng/mL) [10]	5.64	12.4	25.4	80.5	97.2
YT (IL-2 2.5 ng/mL) [7]	1.41	1.74	10.1	72.6	104
[2]	-13	-2.42	9.48	11.7	76.2
[3]	-1.65	-6.59	-10.1	-4.12	59.9
[6]	1.23	-6.26	-15.6	-23.2	9.49
[12]	-14.2	-7.44	-6.63	8.32	85.8
[14]	-1.76	0.06	11.6	53.4	73.3

Details	drug sensitivity score
DERL-7 (IL-2 2.5 ng/mL) [26]	11.1
IMC-1 (IL-2 20 ng/mL) [16]	19.1
KAI3 (IL-2 2.5 ng/mL) [28]	19.7
KHYG-1 (IL-2 2.5 ng/mL) [19]	22.6
NK-92 (IL-2 2.5 ng/mL) [24]	14.7
NK-YS (IL-2 2.5 ng/mL) [20]	15.2
NKL (IL-2 2.5 ng/mL) [23]	11.7
SNK-6 (IL-2 2.5 ng/mL) [25]	18
YT (IL-2 2.5 ng/mL) [22]	15
[15]	11.4
[17]	6.18
[18]	2.92
[21]	0
[27]	6.1
